Source: ChEMBL document CHEMBL1201862, “PubChem BioAssay data set” (2004)
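48-hour exposure; five concentrations; linearly interpolated endpoints. GI50: concentration for 50% inhibition of growth.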 The source made the active and inactive calls. No stated cut-off is given here; in the data, active = GI50 up to about 1.1 µM and inactive = higher.

Columns and labels:
Test in all cases: NCI-60 cell line screen, 48 h
[1] = tested on: SNB-78
[2] = tested on: DMS-114
[3] = tested on: SF-268
[4] = tested on: ACHN
[5] = tested on: DLD-1
[6] = tested on: DMS-273
[7] = tested on: EKVX
[8] = tested on: SF-539
[9] = tested on: NCI-H522
[10] = tested on: KM12
[11] = tested on: A549
[12] = tested on: HL-60
[13] = tested on: Malme-3M
[14] = tested on: SK-MEL-28
[15] = tested on: SNB-75
[16] = tested on: K562
[17] = tested on: U-251
[18] = tested on: SK-MEL-2
[19] = tested on: SN12C
[20] = tested on: UACC-62
[21] = tested on: OVCAR-8
[22] = tested on: UO-31
[23] = tested on: A498
[24] = tested on: CCRF-CEM
[25] = tested on: SW-620
[26] = tested on: COLO 205
[27] = tested on: HT-29
[28] = tested on: LXFL 529
[29] = tested on: TK-10
[30] = tested on: NCI-H460
[31] = tested on: IGROV-1
[32] = tested on: UACC-257
[33] = tested on: HOP-92
[34] = tested on: SR
[35] = tested on: 786-0
[36] = tested on: SF-295
[37] = tested on: CAKI-1
[38] = tested on: SNB-19
[39] = tested on: MOLT-4
[40] = tested on: M19-MEL
[41] = tested on: NCI-H23
[42] = tested on: HCC 2998
[43] = tested on: RPMI-8226
[44] = tested on: SK-MEL-5
[45] = tested on: SK-OV-3
[46] = tested on: OVCAR-5
[47] = tested on: HCT-116
[48] = tested on: NCI-H226
[49] = tested on: OVCAR-3
[50] = tested on: RXF 393
[51] = tested on: HOP-62
[52] = tested on: KM-20L2
[53] = tested on: HCT-15
[54] = tested on: LOX IMVI
[55] = tested on: M14
[56] = tested on: HOP-18

Measured: GI50

ClCCC[Si]12OCCN(CCO1)CCO2
inactive: [1] > 100 µM | [2] > 100 µM | [3] > 100 µM | [4] > 100 µM | [5] > 100 µM | [6] > 100 µM | [7] > 100 µM | [8] > 100 µM | [9] > 100 µM | [10] > 100 µM | [11] > 100 µM | [12] > 100 µM | [13] > 100 µM | [14] > 100 µM | [15] > 100 µM | [16] > 100 µM | [17] > 100 µM | [18] > 100 µM | [19] > 100 µM | [20] > 100 µM | [21] > 100 µM | [22] > 100 µM | [23] > 100 µM | [24] > 100 µM | [25] > 100 µM | [26] > 100 µM | [27] > 100 µM | [28] > 100 µM | [29] > 100 µM | [30] > 100 µM | [31] > 100 µM | [32] > 100 µM | [33] > 100 µM | [34] > 100 µM | [35] > 100 µM | [36] > 100 µM | [37] > 100 µM | [38] > 100 µM | [39] > 100 µM | [40] > 100 µM | [41] > 100 µM | [42] > 100 µM | [43] > 100 µM | [44] > 100 µM | [45] > 100 µM | [46] > 100 µM | [47] > 100 µM | [48] > 100 µM | [49] > 100 µM | [50] > 100 µM

CCCCc1c2c(nc3c1CCc1cc4cc5c(nc4nc1-3)-c1nc3c(c(CCCC)c1CC5)CCC/C3=C\c1ccccc1)/C(=C/c1ccccc1)CCC2
inactive: [1] > 100 µM | [2] > 100 µM | [3] > 100 µM | [4] > 100 µM | [5] > 100 µM | [6] > 100 µM | [7] > 100 µM | [8] > 100 µM | [9] > 100 µM | [10] > 100 µM | [11] > 100 µM | [12] > 100 µM | [13] > 100 µM | [14] > 100 µM | [15] > 100 µM | [16] > 100 µM | [51] > 100 µM | [17] > 100 µM | [19] > 100 µM | [20] > 100 µM | [21] > 100 µM | [22] > 100 µM | [52] > 100 µM | [24] > 100 µM | [25] > 100 µM | [26] > 100 µM | [27] > 100 µM | [28] > 100 µM | [29] > 100 µM | [30] > 100 µM | [31] > 100 µM | [32] > 100 µM | [34] > 100 µM | [35] > 100 µM | [36] > 100 µM | [38] > 100 µM | [39] > 100 µM | [41] > 100 µM | [42] > 100 µM | [43] > 100 µM | [45] > 100 µM | [47] > 100 µM | [48] > 100 µM | [54] > 100 µM | [55] > 100 µM | [49] > 100 µM | [50] > 100 µM
> 100 µM: [53]

COc1ccc(NC(=O)CC(=O)N/N=C(\C)c2cc3ccccc3oc2=O)cc1
inactive: [2] > 100 µM | [4] > 100 µM | [5] > 100 µM | [6] > 100 µM | [7] > 100 µM | [8] > 100 µM | [9] > 100 µM | [10] > 100 µM | [11] > 100 µM | [12] > 100 µM | [13] > 100 µM | [14] > 100 µM | [15] > 100 µM | [16] > 100 µM | [51] > 100 µM | [17] > 100 µM | [19] > 100 µM | [20] > 100 µM | [21] > 100 µM | [22] > 100 µM | [52] > 100 µM | [24] > 100 µM | [25] > 100 µM | [26] > 100 µM | [27] > 100 µM | [29] > 100 µM | [30] > 100 µM | [31] > 100 µM | [32] 89.9 µM | [35] > 100 µM | [36] > 100 µM | [38] > 100 µM | [39] > 100 µM | [40] > 100 µM | [41] > 100 µM | [43] > 100 µM | [44] > 100 µM | [45] > 100 µM | [47] > 100 µM | [48] > 100 µM | [54] > 100 µM | [55] > 100 µM | [49] > 100 µM | [50] > 100 µM | [56] 80.5 µM
> 100 µM: [53]
